How the values were obtained:
human orexin 1 receptor = molecular target: T1, human orexin 1 receptor (Homo sapiens, UniProt O43613); experiment: Calcium accumulation in cells (FLIPR), antagonism of orexin A, human orexin 1 receptor; format: cell-based; conditions: for inhibition at 10 µM: measured at a concentration of 10 μM of compound, read-out: FLIPR hOx1R % inhibition; for Ki: calcium accumulation, antagonism of orexin A, Cheng-Prusoff corrected, read-out: FLIPR hOx1R Ki
T1 construct: expressed in transfected cells
T1 sequence (O43613 1-425): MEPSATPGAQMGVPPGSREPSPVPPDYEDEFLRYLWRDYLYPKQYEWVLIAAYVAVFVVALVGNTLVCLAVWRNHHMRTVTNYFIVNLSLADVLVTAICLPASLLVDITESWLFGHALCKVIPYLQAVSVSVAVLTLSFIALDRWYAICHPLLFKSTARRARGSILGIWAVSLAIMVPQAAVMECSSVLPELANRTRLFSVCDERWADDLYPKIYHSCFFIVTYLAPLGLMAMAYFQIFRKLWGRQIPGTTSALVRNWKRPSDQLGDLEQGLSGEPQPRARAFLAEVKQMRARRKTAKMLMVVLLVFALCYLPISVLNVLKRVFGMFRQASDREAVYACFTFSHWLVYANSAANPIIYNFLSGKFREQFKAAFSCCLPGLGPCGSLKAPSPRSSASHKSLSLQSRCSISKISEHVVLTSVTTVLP
Experimental: (§1) Calcium Accumulation in Cells (FLIPR):
(§2) Cells expressing human orexin 1 or human orexin 2 receptors, were seeded at 8,000 cells/well in 384 well black-walled clear bottom, poly-D-lysine coated plates. After 24 h, the medium was removed and cells were washed once with phosphate buffered saline and serum-deprived overnight in assay buffer (130 mM NaCl, 5.4 mM KCl, 1.8 mM CaCl2, 0.8 mM MgSO4, 0.9 mM NaH2PO4, 25 mM glucose, 20 mM HEPES, pH 7.4) containing bovine serum albumin (1% w/v).
(§3) On the day of the experiment, the cells seeded in black plates were treated with assay buffer containing the Ca^2+ sensitive fluorescent dye Fluo-4-AM (2 μM), and probenecid (0.1 mM). After 1 h plates were washed twice with, and resuspended in, assay buffer containing probenecid (0.1 mM) using a multi plate washer. The plates were placed into a FLIPR II (Fluorometric Imaging Plate Reader, Molecular Devices, Sunnyvale, Calif., USA) and baseline fluorescence (fluorescence light units, FLU) was measured (5 measurements, 2 S each; laser excitation 488 nm at 0.6-1 W, CCD camera exposure 0.4 s) before addition of buffer alone (basal) or containing test compounds (either compound of formula I alone, agonist alone or agonist in the presence of various concentrations of compounds of formula I). Fluorescence measurements were then continued every 1 S for 120 S followed by every 4 S for 240 S.
(§4) The measurements were typically made in two sequences:
(§5) Compounds of formula I were tested usually in a concentration range from 10^−9 M to 10^−5 M.
(§6) In the second round, performed one hour later (to allow for equilibration), Orexin A was tested either in the absence (calibration curves, Orexin A agonist controls) or in the presence of compounds of formula Ito determine antagonism.
(§7) Inhibition data is expressed in Table 1 as Kd [μM], converted by the Cheng and Prusoff correction (Kd=IC50/1+(L/EC50)), where IC50 is the 50% inhibition value determined in concentration response inhibition curves, EC50 is the half maximal activation concentration determined for orexin A in concentration response curves and L is the concentration of orexin A used in inhibition experiments performed in with a submaximal concentration of orexin A in the presence of up to 8 increasing concentrations of compound of formula I. Inhibition data is also expressed in Table 1 as % inhibition value measured at a concentration of 10 μM of selected compounds of formula I.

human orexin 2 receptor = molecular target: T2, human orexin 2 receptor (Homo sapiens, UniProt O43614); experiment: Calcium accumulation in cells (FLIPR), antagonism of orexin A, human orexin 2 receptor; format: cell-based; conditions: for Ki: calcium accumulation, antagonism of orexin A, Cheng-Prusoff corrected, read-out: FLIPR hOx2R Ki
T2 construct: expressed in transfected cells
T2 sequence (O43614 1-444): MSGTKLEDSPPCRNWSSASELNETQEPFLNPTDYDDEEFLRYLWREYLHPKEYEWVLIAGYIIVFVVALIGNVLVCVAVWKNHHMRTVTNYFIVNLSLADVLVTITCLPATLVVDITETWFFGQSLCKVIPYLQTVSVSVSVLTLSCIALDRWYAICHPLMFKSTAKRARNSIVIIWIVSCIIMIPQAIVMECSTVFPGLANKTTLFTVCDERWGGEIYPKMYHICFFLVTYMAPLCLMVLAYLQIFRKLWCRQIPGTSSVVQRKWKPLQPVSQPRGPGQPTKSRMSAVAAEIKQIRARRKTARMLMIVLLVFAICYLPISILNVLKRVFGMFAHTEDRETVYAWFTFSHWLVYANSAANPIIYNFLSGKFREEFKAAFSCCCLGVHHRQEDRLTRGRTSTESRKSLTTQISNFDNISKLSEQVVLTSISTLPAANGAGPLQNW
Experimental: as §1, §2, §3, §4, §5, §6, §7

Row | Compound | inhibition at 10 µM (human orexin 1 receptor) | Ki (human orexin 2 receptor) | inhibition at 10 µM (human orexin 2 receptor; measured at a concentration of 10 μM of compound, read-out: FLIPR hOx2R % inhibition) | Ki (human orexin 1 receptor)
1 | Cc1cc(C)nc(N2CCC3(CC2)OCCN(Cc2nn(C)nc2-c2ccccc2)C3=O)n1 [Example 2.12, 9-(4,6-Dimethylpyrimidin-2-yl)-4-((2-methyl-5-phenyl-2H-1,2,3-triazol-4-yl)methyl)-1-oxa-4,9-diazaspiro[5.5]undecan-5-one] | 16% | 364 nM | – | –
2 | Cc1cc(C)nc(N2CCC3(CC2)OCCN(Cc2c(-c4ccccc4)nnn2C)C3=O)n1 [Example 2.15, 9-(4,6-Dimethylpyrimidin-2-yl)-4-((1-methyl-4-phenyl-1H-1,2,3-triazol-5-yl)methyl)-1-oxa-4,9-diazaspiro[5.5]undecan-5-one] | 10% | 2160 nM | – | –
3 | Cc1cc(C)nc(N2CCC3(CC2)OCCN(Cc2nnn(C)c2-c2ccccc2)C3=O)n1 [Example 2.16, 9-(4,6-Dimethylpyrimidin-2-yl)-4-((1-methyl-5-phenyl-1H-1,2,3-triazol-4-yl)methyl)-1-oxa-4,9-diazaspiro[5.5]undecan-5-one] | 16% | – | 27% | –
4 | CCc1ccnc(N2CCC3(CC2)OCCN(Cc2c[nH]c4ccccc24)C3=O)n1 [Example 2.22, 4-((1H-indol-3-yl)methyl)-9-(4-ethylpyrimidin-2-yl)-1-oxa-4,9-diazaspiro[5.5]undecan-5-one] | – | 251 nM | – | 2780 nM
5 | Cc1cnc(N2CCC3(CC2)OCCN(Cc2c[nH]c4ccccc24)C3=O)nc1C [Example 2.24, 4-((1H-indol-3-yl)methyl)-9-(4,5-dimethylpyrimidin-2-yl)-1-oxa-4,9-diazaspiro[5.5]undecan-5-one] | – | 182 nM | – | 1650 nM
6 | Cc1cc(C)nc(N2CCC3(CC2)OCCN(Cc2nocc2-c2ccccc2)C3=O)n1 [Example 2.25, 9-(4,6-dimethylpyrimidin-2-yl)-4-((4-phenylisoxazol-3-yl)methyl)-1-oxa-4,9-diazaspiro[5.5]undecan-5-one] | – | 374 nM | – | 2680 nM
7 | Cc1cc(C)nc(N2CCC3(CC2)OCCN(Cc2conc2-c2ccccc2)C3=O)n1 [Example 2.26, 9-(4,6-dimethylpyrimidin-2-yl)-4-((3-phenylisoxazol-4-yl)methyl)-1-oxa-4,9-diazaspiro[5.5]undecan-5-one] | – | 148 nM | – | 1180 nM
8 | N#Cc1ccnc(N2CCC3(CCN(Cc4c[nH]c5ccccc45)C3=O)CC2)c1 [Example 3.3, 2-(2-((1H-Indol-3-yl)methyl)-1-oxo-2,8-diazaspiro[4.5]decan-8-yl)isonicotinonitrile] | 27% | 496 nM | – | –
9 | COc1cccc(N2CCC3(CCN(Cc4c[nH]c5ccccc45)C3=O)CC2)n1 [Example 3.4, 2-((1H-Indol-3-yl)methyl)-8-(6-methoxypyridin-2-yl)-2,8-diazaspiro[4.5]decan-1-one] | – | 287 nM | – | 3770 nM
10 | Cc1ccnc(N2CCC3(CCN(Cc4c[nH]c5ccccc45)C3=O)CC2)n1 [Example 3.5, 2-((1H-Indol-3-yl)methyl)-8-(4-methylpyrimidin-2-yl)-2,8-diazaspiro[4.5]decan-1-one] | 25% | 296 nM | – | –
11 | O=C1N(Cc2ccccc2-c2ccccc2)CCC12CCN(c1cnc3ccccc3n1)CC2 [Example 3.6, 2-(biphenyl-2-ylmethyl)-8-(quinoxalin-2-yl)-2,8-diazaspiro[4.5]decan-1-one] | – | 784 nM | – | 1630 nM
12 | Cn1c(N2CCC3(CCN(Cc4ccccc4-c4ccccc4)C3=O)CC2)nc2ccccc21 [Example 3.8, 2-(Biphenyl-2-ylmethyl)-8-(1-methyl-1H-benzo[d]imidazol-2-yl)-2,8-diazaspiro[4.5]decan-1-one] | – | 644 nM | – | 506 nM
13 | O=C1N(Cc2ccccc2-c2ccccc2)CCC12CCN(c1nc3ccccc3[nH]1)CC2 [Example 3.9, 8-(1H-Benzo[d]imidazol-2-yl)-2-(biphenyl-2-ylmethyl)-2,8-diazaspiro[4.5]decan-1-one] | – | 731 nM | – | 343 nM
14 | O=C1N(Cc2c[nH]c3ccccc23)CCC12CCN(c1nc3ccccc3[nH]1)CC2 [Example 3.12, 8-(1H-Benzoimidazol-2-yl)-2-(1H-indol-3-ylmethyl)-2,8-diaza-spiro[4.5]decan-1-one] | – | 376 nM | – | 4970 nM
15 | O=C1N(Cc2c[nH]c3ccccc23)CCC12CCN(c1nc3ccccc3o1)CC2 [Example 3.13, 8-Benzooxazol-2-yl-2-(1H-indol-3-ylmethyl)-2,8-diaza-spiro[4.5]decan-1-one] | – | 342 nM | – | 342 nM
16 | COc1ccnc(N2CCC3(CCN(Cc4c[nH]c5ccccc45)C3=O)CC2)n1 [Example 3.14, 2-(1H-Indol-3-ylmethyl)-8-(4-methoxy-pyrimidin-2-yl)-2,8-diaza-spiro[4.5]decan-1-one] | – | 134 nM | – | 2770 nM
17 | COc1ccnc(N2CCC3(CCN(Cc4c[nH]c5ncccc45)C3=O)CC2)n1 [Example 3.15, 8-(4-Methoxy-pyrimidin-2-yl)-2-(1H-pyrrolo[2,3-b]pyridin-3-ylmethyl)-2,8-diaza-spiro[4.5]decan-1-one] | 26% | 637 nM | – | –
18 | COc1ccnc(N2CCC3(CCN(Cc4n[nH]c5ccccc45)C3=O)CC2)n1 [Example 3.16, 2-(1H-Indazol-3-ylmethyl)-8-(4-methoxy-pyrimidin-2-yl)-2,8-diaza-spiro[4.5]decan-1-one] | 39% | 673 nM | – | –
19 | COc1ccnc(N2CCC3(CCN(Cc4ccccc4-c4nc(C)no4)C3=O)CC2)n1 [Example 3.17, 8-(4-Methoxy-pyrimidin-2-yl)-2-[2-(3-methyl-[1,2,4]oxadiazol-5-yl)-benzyl]-2,8-diaza-spiro[4.5]decan-1-one] | 37% | 298 nM | – | –
20 | Cc1cc(C)nc(N2CCC3(CCN(Cc4ccccc4-c4nc(C)no4)C3=O)CC2)n1 [Example 3.19, 8-(4,6-Dimethyl-pyrimidin-2-yl)-2-[2-(3-methyl-[1,2,4]oxadiazol-5-yl)-benzyl]-2,8-diaza-spiro[4.5]decan-1-one] | 22% | 127 nM | – | –
21 | COc1cc(C)nc(N2CCC3(CCN(Cc4c[nH]c5ncccc45)C3=O)CC2)n1 [Example 3.22, 2-((1H-pyrrolo[2,3-b]pyridin-3-yl)methyl)-8-(4-methoxy-6-methylpyrimidin-2-yl)-2,8-diazaspiro[4.5]decan-1-one] | 24% | 246 nM | – | –
22 | Cc1cc(C)nc(N2CCC3(CCN(Cc4ccc5[nH]ccc5c4)C3=O)CC2)n1 [Example 3.23, 2-((1H-indol-5-yl)methyl)-8-(4,6-dimethylpyrimidin-2-yl)-2,8-diazaspiro[4.5]decan-1-one] | 10% | 2390 nM | – | –
23 | Cc1cc(C)nc(N2CCC3(CCN(Cc4nn(C)nc4-c4ccccc4)C3=O)CC2)n1 [Example 3.24, 8-(4,6-dimethylpyrimidin-2-yl)-2-((2-methyl-5-phenyl-2H-1,2,3-triazol-4-yl)methyl)-2,8-diazaspiro[4.5]decan-1-one] | 25% | 117 nM | – | –

Reference: patent publication US20120165331A1, “Di/tri-aza-spiro-C9-C11alkanes” (priority 2010, published 2012)
